From patent publication US20240382401A1, “COMPOSITIONS” (JVS Products Limited, priority 2020, published 2024)

Tested on: tissue engineered human skin model (EpiDerm™)
Experiment: In vitro skin irritation test, EpiDerm (EPI-200-SIT), MTT assay
Assay type: cell-based
Settings: 60 minutes exposure, relative to negative control, irritant if below 50%
Protocol: A 24 tissue insert EpiDerm™ skin irritation kit was purchased from MatTek In Vitro Life Science Laboratories, Slovakia (EPI-200-SIT). On receipt of the kit, the tissues were visually assessed for integrity and conditioned by transferring into sterile 6 well plates, adding 0.9 ml medium and incubating for 60 minutes at 37° C., 5% CO2, 95% RH. After 60 minutes, the tissues were removed, placed in fresh medium and further incubated for 18 hours.
To test for irritancy potential, 30 μl of liquid formulation, plus positive and negative control or 25 mg semisolid (gel/moisturiser) were applied to surface of each test tissue insert. After dosing the inserts were incubated for 35 minutes (37° C., 5% CO2, 95% RH). […]
Once extraction was complete, 200 μl samples from each tissue were added to a 96 well plate in duplicate for the MTT assay of cell viability, and 200 μl isopropanol to 4 wells as blanks. The optical density of each well was read using a spectrophotometric plate reader at 570 nm without using a reference filter.
The mean OD (optical density) from the blank wells was subtracted from the OD of each well. The mean OD from each duplicate was then obtained and the individual relative tissue viability for each tissue treated with a test substance (TS), the positive control (PC) and the negative control (NC) calculated according to the following formulas: […]

CCCCCCCCCCCCOS(=O)(=O)[O-].[Na+] [5% SDS]
Mean RV % (relative viability): 9.0%
